According to PubChem BioAssay (NCI):
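Dose response: 5 concentrations. Exposure: 48 h. Format: 96-well plates. Endpoint: linear interpolation; highest concentration if not reached. Here, GI50 denotes the concentration required for 50% inhibition of growth. At the TGI there is no net growth.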

Tests used:
Test in all cases: NCI anticancer screen, dose series, 48 h
[1] = tested on: COLO 205 colon
[2] = tested on: OVCAR-8 ovarian
[3] = tested on: UO-31 renal
[4] = tested on: 786-0 renal
[5] = tested on: HT29 colon
[6] = tested on: SR leukemia
[7] = tested on: OVCAR-3 ovarian
[8] = tested on: MDA-MB-231 breast
[9] = tested on: EKVX NSCLC
[10] = tested on: LOX IMVI melanoma

Compound | TGI [1] | TGI [2] | TGI [3] | TGI [4] | TGI [5] | TGI [6] | TGI [7] | TGI [8] | TGI [9] | TGI [10] | GI50 [8] | GI50 [1] | GI50 [9] | GI50 [2] | GI50 [10] | GI50 [4] | GI50 [5] | GI50 [7] | GI50 [3]
ClC[Si]12OCCN(CCO1)CCO2 | > 100 µM | > 100 µM | > 100 µM | > 100 µM | > 100 µM | > 100 µM | > 100 µM |  |  |  |  |  |  |  |  |  |  |  | 
COc1ccc(CC2C3=C(CCCC3)CCN2C)cc1 (configuration not stated) | > 100 µM | > 100 µM | > 100 µM | > 100 µM | > 100 µM |  | > 100 µM | > 100 µM | > 100 µM | > 100 µM |  |  |  |  |  |  |  |  | 
CN(C)/C=N/c1nc2ncn(CCOC(=O)c3ccccc3)c2c(=O)[nH]1 | > 100 µM | > 100 µM | > 100 µM | > 100 µM | > 100 µM | > 100 µM | > 100 µM |  | > 100 µM | > 100 µM |  |  |  |  |  |  |  |  | 
N#CC1=C(c2ccccc2)C(O)(c2ccccc2)NC1=O (configuration not stated) | > 100 µM | > 100 µM | > 100 µM | > 100 µM | > 100 µM | > 100 µM | > 100 µM |  | > 100 µM | > 100 µM |  |  |  |  |  |  |  |  | 
CC(Oc1ccc2cc(C(=O)c3ccccc3)c(=O)oc2c1)C(=O)O (configuration not stated) | > 100 µM | > 100 µM | > 100 µM | > 100 µM | > 100 µM | > 100 µM | > 100 µM |  | > 100 µM | > 100 µM |  |  |  |  |  |  |  |  | 
CC([O-])C(=O)[O-].NCC1CCC1CN.[Pt+4] (configuration not stated) | > 10 µM | > 10 µM |  | > 10 µM | > 10 µM |  | > 10 µM | > 10 µM | > 10 µM | > 10 µM | > 10 µM | > 10 µM | > 10 µM | > 10 µM | > 10 µM | > 10 µM | > 10 µM | > 10 µM | 
COc1ccc(C(=O)O)c(Cc2ccc3ccccc3c2)c1 | > 100 µM | > 100 µM | > 100 µM | > 100 µM | > 100 µM | > 100 µM | > 100 µM |  | > 100 µM | > 100 µM |  |  |  |  |  |  |  |  | 
CCN(CC)CC(O)C1CCC(c2ccccc2)CC1 (configuration not stated) | 29.2 µM | 59.7 µM | 32.3 µM | 47.6 µM | 47.7 µM |  | > 100 µM | 37.6 µM | > 100 µM | 42.1 µM |  |  |  |  |  |  |  |  | 
CC1=CC2C(C(C)C)CC1C1C(=O)OC(=O)C21 (configuration not stated) | > 100 µM | > 100 µM | > 100 µM | > 100 µM | > 100 µM |  | 58.8 µM | > 100 µM | > 100 µM | > 100 µM |  |  |  |  |  |  |  |  | 
O=C1C(N2C(=O)c3ccccc3C2=O)CN1C(COCc1ccccc1)c1ccc(OCc2ccccc2)cc1 (configuration not stated) | > 100 µM | > 100 µM | > 100 µM | > 100 µM | > 100 µM | > 100 µM | > 100 µM |  | > 100 µM | > 100 µM |  |  |  |  |  |  |  |  | 
c1ccc(C2N3CCCCC3[C@@H]3c4[nH]c5ccccc5c4CCN23)cc1 (some centres not stated) | 48.2 µM | > 100 µM | > 100 µM | > 100 µM | 33.5 µM |  | > 100 µM |  | > 100 µM |  |  |  |  |  |  |  |  |  | 
COc1ccc(/C(C)=N/NC(N)=S)c(OC)c1 | > 100 µM | > 100 µM | > 100 µM | > 100 µM | > 100 µM | > 100 µM | > 100 µM |  | > 100 µM | > 100 µM |  |  |  |  |  |  |  |  | 
C=C1C(=O)OC2/C=C(\C)C3OC3/C=C(/C(=O)OC)C(OC(C)=O)C(OC(=O)C(C)(O)C(C)OC(C)=O)C12 (configuration not stated) | 8.97 µM | 6.92 µM | 15 µM | 8.27 µM | 2.88 µM |  | 13.9 µM | 22.6 µM | 42.9 µM | 3.61 µM |  |  |  |  |  |  |  |  | 
CN1CCCN(C(c2ccccc2)c2ccc(Br)cc2)CC1 (configuration not stated) | 16.2 µM | 21 µM | 16 µM | 14 µM | 13.1 µM |  | 10.2 µM | 7.81 µM | 19.6 µM | 10.1 µM | 2.41 µM | 3.93 µM | 4.94 µM | 6.5 µM | 2.85 µM | 3.94 µM | 2.92 µM | 2.83 µM | 2.65 µM
COc1cc(-c2cc(CCC(=O)Nc3ccccc3[N+](=O)[O-])n(-c3ccc([N+](=O)[O-])cc3[N+](=O)[O-])n2)ccc1O | > 100 µM | > 100 µM | > 100 µM | > 100 µM | > 10 µM | > 10 µM | > 10 µM |  | > 100 µM | > 100 µM |  | > 100 µM | > 100 µM | > 100 µM | > 100 µM | > 100 µM |  |  | > 100 µM
Cc1cccc(NC(=O)CC#N)c1Cl |  |  | > 100 µM | > 100 µM | > 100 µM | > 100 µM | > 100 µM |  | > 100 µM | > 100 µM |  |  |  |  |  |  |  |  | 
CC1(C)OC(=O)C(=C2CC(c3ccccc3)c3ccccc32)C(=O)O1 (configuration not stated) | > 100 µM | > 100 µM | > 100 µM | > 100 µM | > 100 µM | > 100 µM | > 100 µM |  | > 100 µM | > 100 µM |  |  |  |  |  |  |  |  | 
COc1cc2c3c(c4c5ccccc5[nH]c4c2c(OC)c1OC)C(=O)N(CCN1CCCCC1)C3=O | 3.25 µM | 2.36 µM | 2.32 µM | 2.87 µM | 1.88 µM |  | 2.77 µM | 3.08 µM | 3.42 µM | 2.45 µM | 1.47 µM | 0.849 µM | 1.5 µM | 0.487 µM | 1.05 µM | 1.27 µM | 0.417 µM | 1.31 µM | 1.03 µM
BrC12c3ccccc3Sc3ccccc3C1(Br)c1ccccc12 (configuration not stated) | 76.3 µM | > 100 µM | > 100 µM | > 100 µM | > 100 µM | 41.4 µM |  |  |  | 29.7 µM |  |  |  |  |  |  |  |  | 
CC1=C(C(=O)Nc2ccccc2C)C(c2ccc(C3C(C(=O)Nc4ccccc4C)=CNC=C3C(=O)Nc3ccccc3C)cc2)C(C(=O)Nc2ccccc2C)=C(C)N1 | 50.1 µM | > 74.8 µM | 40 µM | 29.3 µM | 29.3 µM | 16.7 µM | 39.5 µM |  | 40.7 µM | 21.7 µM |  |  |  |  |  |  |  |  | 
CC(=O)OCC1OC(Sc2ccccn2)C=CC1OC(C)=O (configuration not stated) | > 100 µM | > 100 µM | > 100 µM | > 100 µM | > 100 µM | > 100 µM | > 100 µM |  | > 100 µM | > 100 µM |  |  |  |  |  |  |  |  | 
